Tests used:
Type in all cases: cell-based
[1] = tested on: total cellular cholesterol; test: Cellular cholesterol measurement (cholesterol oxidase fluorimetric assay); conditions: 10 to 20 mM for 1 hr at 37° C, then washing
Protocol: Cellular cholesterol was measured with a sensitive cholesterol oxidase-based fluorimetric assay (Amplex Red Cholesterol Kit) from Molecular Probes (Eugene Oreg.). Cholesterol content of cells was normalized to total cellular protein.
The role of lipid rafts in the HIV-1 fusion process was examined by treating CD4+HIV-susceptible target cells with 2-OH-βCD to deplete membrane cholesterol and disperse lipid rafts.

[2] = tested on: LFA-1 binding to ICAM-1 triggered through CXCR4; test: SDF-1α-induced cell adhesion assay; conditions: Jurkat cells treated with 20 mM
Protocol: Cell adhesion assays were carried out essentially as previously described (Liao et al., supra, 2000). The wells of 96 well plates were coated with recombinant ICAM-Ig and blocked as described. Jurkat cells were labeled with horseradish peroxidase (HRP) and treated with either 20 mM 2-OH-βCD or medium alone as described above. The cells were then washed and resuspended in cRPMI at a density of 2×10^6/ml. One hundred Tl of cells were added to the wells along with cRPMI alone or medium containing 10 ng/ml of SDF-1α. The wells were incubated at 37° C. for various times before washing to remove unbound cells. Bound cells were lysed and HRP measured as described previously. A standard curve was generated by from known numbers of labeled cells lysed and quantitated by measuring HRP.
Loss of CXCR function in regulating LFA-1 could also explain the lower binding of HIV-1 to βCD-treated cells observed previously (Liao et al., supra, 2000; Orentas and Hildreth, supra, 1993). […] The ability of βCD treatment of cells to affect control of LFA-1 function by CXCR4 also was examined. Jurkat cells were treated with 2-OH-βCD or medium alone, then were added to the wells of culture plates coated with soluble recombinant ICAM-Ig. SDF-1, a CXCR4-specific chemokine that triggers LFA-1 function, was added to trigger binding of LFA-1 to ICAM-1. […]

[3] = tested on: CXCR4, CD4 and CD45 on PHA blasts; test: Immunostaining and confocal microscopy of PHA blasts
Protocol: Cell-surface staining of 2-OH-βCD-treated and untreated cells was performed under saturating conditions. 2-OH-βCD-treated and untreated PHA blasts (3×10^5) were washed in cold PBS and pre-incubated on ice for 15 min in 5% NGS/PBS. Cells were then incubated with MAb 1-5 μg in 5% NGS/PBS 45 min on ice, washed with PBS and then incubated with 2 μg of FITC-GAM in 5% NGS/PBS. The cells were then fixed with 2% paraformaldehyde in PBS and spun onto poly-L-lysine coated slides using cyto-funnels. The pellets were overlaid with 50 μl of 25% glycerol in PBS and a coverslip was positioned over the droplet. The edges of the slides were sealed with nail polish before storing them at 4° C. This staining procedure was also performed with cells prefixed with 2% paraformaldehyde in PBS prior to MAb staining. Viewing of slides was performed with an Olympus IX50 confocal microscope under oil immersion at 100x magnification. Micrographs were acquired onto a Silicon Graphics Workstation with Intervision software. Final images were enhanced on the Silicon Graphics Workstation by two-dimensional deconvolution, and brightness and contrast were adjusted for viewing.
Patchy staining of CXCR4 persisted after 2-OH-βCD treatment whether the cells were fixed before or after mAb staining. […]

HIV-1 = test: Virus production and infectivity of virions from cholesterol-depleted cells
Protocol: PM1 cells chronically infected with HIV-1RF were washed and treated with 20 mM 2-OH-βCD in cRPMI or with cRPMI alone for 1 hr at 37° C. The cells were then washed twice before resuspension at a density of 5×10^6/ml in cRPMI. The cells were incubated for 6 hrs at 37° C., 5% CO2 and pelleted by centrifugation. Supernatants, which contained the virus, were collected and purified by centrifugation through a 20% sucrose cushion (Liao et al., supra, 2000). The virus pellets were taken up in cRPMI and titrated against LuSIV cells to determine infectivity. P24 was measured in a standard p24 ELISA.
The effect of 2-OH-βCD on infectivity of HIV was measured in a Luciferase-based single cycle infection assay as previously described (Liao et al., supra, 2000). LuSIV cells were treated with 20 mM 2-OH-βCD in iRPMI or iRPMI alone for 1 hr at 37° C. Cells were then washed with iRPMI before being resuspended in cRPMI at a density of 2×10^6/ml. Cells in 100 Tl were mixed with cRPMI or with dilutions of virus supernatant (62 to 500 pg/ml of p24) from 2-OH-βCD-treated or untreated PM1 cells and allowed to incubate overnight (16 hr) at 37° C. […] After centrifugation at 13,000×g for 30 seconds, 10, μl of lysate were added to 100 μl Luciferase Reagent (Promega) in an opaque 96 well plate and luminescence was measured on a Packard Lumicount luminometer (Downers Grove, Ill.).

2-hydroxypropyl-β-cyclodextrin [2-OH-βCD]
Depletion of total cellular cholesterol [1]: greater than 70% | Binding of Jurkat cells to ICAM-Ig after exposure to SDF-1 [2]: no binding to ICAM-Ig | Distribution of CXCR4 on the cell surface ([3]; PHA blasts after cholesterol depletion): not significantly redistributed | Distribution of CD4 and CD45 on the cell surface ([3]; PHA blasts after treatment): unchanged | Infectivity of virions from cholesterol-depleted cells (HIV-1): significantly less infectious | Production of HIV-1 virions from cholesterol-depleted cells (HIV-1): dramatically decreased
